Data taken from patent US9505735B2, “Compounds for treating infectious diseases” (Whitehead Institute for Biomedical Research, priority 2012, dated 2016).

Columns and labels:
PIG-W = molecular target: T1, PIG-W (Homo sapiens, UniProt Q7Z7B1); assay: Growth of S. cerevisiae strain whose GWT1 is replaced by the human gene PIG-W; format: cell-based
T1 construct: expressed in transfected cells; host or cells: S. cerevisiae BY4741-derived gwt1 deletion shuttle strain carrying a pAG415GPD-based PIG-W plasmid
T1 sequence (Q7Z7B1 1-504): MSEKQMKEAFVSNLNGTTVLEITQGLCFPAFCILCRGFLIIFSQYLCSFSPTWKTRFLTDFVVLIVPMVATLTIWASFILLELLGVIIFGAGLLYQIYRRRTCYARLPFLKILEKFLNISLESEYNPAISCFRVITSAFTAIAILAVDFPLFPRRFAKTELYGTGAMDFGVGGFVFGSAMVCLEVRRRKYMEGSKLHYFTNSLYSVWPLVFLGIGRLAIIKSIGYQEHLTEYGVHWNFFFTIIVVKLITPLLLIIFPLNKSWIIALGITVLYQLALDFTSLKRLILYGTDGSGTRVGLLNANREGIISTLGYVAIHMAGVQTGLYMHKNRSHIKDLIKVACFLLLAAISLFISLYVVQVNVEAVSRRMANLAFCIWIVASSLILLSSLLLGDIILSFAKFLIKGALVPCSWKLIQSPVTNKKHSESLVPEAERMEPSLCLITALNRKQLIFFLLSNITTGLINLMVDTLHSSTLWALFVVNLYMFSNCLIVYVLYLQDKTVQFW
Experimental: Sensitivity to gepinacin was determined in 96-well, flat bottom microtiter plates using a modification of the NCCLS broth microdilution protocol CLS M27-A3 and RPMI as culture medium. Fungi were inoculated at ˜10^3 cells per ml and incubated for 48 hours at 37° C. after which plates were sealed, shaken and the optical density read at 600 nm (OD600) on a Tecan Safire 2 plate reader. All samples were run in duplicate or triplicate and assays were repeated at least once. Results are expressed as fraction of growth in the absence of compound and the mean and standard deviation are plotted. For the mold A. terreus, inoculum was 10^4 cells per ml and plates were incubated at 35° C. for 48 hours in the dark. Plates were then visually scored as specified by CLSI document M38-A2 to determine the MIC50 and MIC80.
Because GWT1 deletion is lethal in S. cerevisiae strain BY4741, a haploid shuttle strain was constructed in which the genomic copy of GWT1 was deleted and replaced by GWT1 on a plasmid that also encoded the URA3 gene and a G418-resistance gene. […]
An S. cerevesiae strain was generated in which the endogenous Gwt1 gene was deleted. […] Shown in FIGS. 22A-D show the effect of the indicated compounds on growth (assessed by OD600) and viability (assessed using Bactiter Glo) of the yeast strain with high copy or low copy plasmid containing S. cerevesiae Gwt1. […]

[1] = tested on: S. cerevisiae strains with graded levels of Gwt1 expression; assay: Antifungal susceptibility testing of strains with graded GWT1 copy number; format: cell-based
Text: (A) Anti-fungal susceptibility testing of S. cerevisiae strains with graded levels of Gwt1 expression treated with gepinacin. Wild type diploids (Wt) or diploids with one copy of GWT1 deleted (gwt1/GWT1) were transformed with low copy (CEN) plasmids encoding GWT1 or GFP (as a control). (B) Schematic of Gwt1 protein function in cells. Glucosamine (shown as a black circle) phosphatidyl inositol (GlcN-PI) is acylated (orange zigzag) by Gwt1 to become GlcN-(acyl)PI.
Anti-fungal susceptibility testing of wild type diploids (Wt) or diploids with one copy of GWT1 deleted (gwt1Δ/GWT1) transformed with high copy (2 micron) plasmids containing GWT1 or GFP (as a control). The strains were treated with gepinacin for 48 hours and the growth was monitored by measuring the optical density at 600 nm (OD600). The results are expressed as a fraction of the OD600 measured in the absence of gepinacin.
To determine the mechanism responsible for the antifungal activity of the compound, the powerful genetic tools available in the model fungal organism S. cerevisiae were utilized. Both an arrayed haploid over-expression library and a pooled heterozygous deletion library were screened for enhancement or suppression of toxicity. […] With each strain expressing one open reading frame (ORF), this library covered approximately 90% of the yeast genome. […]

For COc1ccc(NC(=O)COc2cccc(OCC(C)C)c2)cc1 [gepinacin], the “activity against PigW / in the PIG-W expressing strain” value (PIG-W) was “inactive” and the “toxicity versus GWT1 copy number” value [1] was “inversely correlated with GWT1 copy number”.
